We go through 2 compounds from patent US12162901B2, “N-acetylated sialic acids and related sialosides” (priority 2016, dated 2024).

Assay [1] concerns BJA-B K20 cells. Briefly: Feeding of free sialic acids to BJA-B K20 cells, PToV probes, flow cytometry. Type of assay: cell-based, human. Particulars: 1 mM free sialic acid, three days of feeding.
In another assay the test system is human CD22-Fc/Siglec-2. Briefly: Feeding of free sialic acids to BJA-B K20 cells, probing with human CD22-Fc, flow cytometry. The format is cell-based. Conditions: 3 mM, 3 days of feeding. The protocol:
Cell Culture and Sugar Supplementation.
Flow Cytometry. Cells were washed with PBS and incubated with 10 μg/mL of PToV probes in PBS with 1% BSA and 10 mM EDTA for 30 minutes on ice. Subsequently, cells were washed with PBS and incubated with PE goat anti-human IgG antibody for 30 minutes on ice. After an additional washing step, the cells were analyzed by FACSCalibur (BD).
After 3 days of feeding, BJA-B K20 cells were probed with human CD22-Fc/Siglec-2 to detect ligands (FIG. 7). […] However, when the cells were grown in the presence of Neu5Ac9NAc, the expression of the CD22 ligand was minimal (FIG. 7C). […] This supports previous observations that human CD22-Fc recognizes α2-6-linked sialosides with Neu5Ac or N-glycolylneuraminic acid (Neu5Gc) as the preferred naturally existing sialic acid form and 9-O-acetyl modification on sialic acid blocks the binding.
Background: Flow cytometry measures light scatter and fluorescence of single cells or particles in a stream.

A further assay deals with influenza C virus. Conditions: background statement; cited from earlier work.
The test system of assay [2] is BJA-B K20 cells. Briefly: Feeding of free sialic acids to BJA-B K20 cells, DMB derivatization and HPLC of membrane sialic acids. Conditions: 1 mM for 3 days; sialic acids released with Vibrio cholerae neuraminidase.
Assay [3] concerns the target T1, human cytosolic sialidase hNEU2 (Homo sapiens, UniProt Q9Y3R4).
T1 construct: made in house
Briefly: Sialidase substrate specificity of Leg glycosides (HPLC/capillary electrophoresis), hNEU2. Type of assay: biochemical. Conditions: 37° C., 16 hs, pH 5.0.

A further assay concerns A. ureafaciens sialidase. Briefly: Sialidase substrate specificity of Leg glycosides (HPLC/capillary electrophoresis), A. ureafaciens sialidase. Type of assay: biochemical, Arthrobacter ureafaciens. Conditions: pH 5.5.
The next assay has as its target T2, V. cholerae sialidase (Vibrio cholerae serotype O1, UniProt P0C6E9).
T2 construct: purchased Roche
Briefly: Sialidase substrate specificity of Leg glycosides (HPLC/capillary electrophoresis), V. cholerae sialidase. The format is biochemical. Particulars: pH 5.5.

Assay [4] has as its target C. perfringens sialidase (CpNanH) (Clostridium perfringens, UniProt P10481). Type of assay: biochemical. Conditions: 37° C., 16 hs, pH 5.0.
For another assay, the target named is T3, BiNanH2 (Bifidobacterium longum, UniProt A0ACD7UU12).
T3 sequence (A0ACD7UU12 1-394): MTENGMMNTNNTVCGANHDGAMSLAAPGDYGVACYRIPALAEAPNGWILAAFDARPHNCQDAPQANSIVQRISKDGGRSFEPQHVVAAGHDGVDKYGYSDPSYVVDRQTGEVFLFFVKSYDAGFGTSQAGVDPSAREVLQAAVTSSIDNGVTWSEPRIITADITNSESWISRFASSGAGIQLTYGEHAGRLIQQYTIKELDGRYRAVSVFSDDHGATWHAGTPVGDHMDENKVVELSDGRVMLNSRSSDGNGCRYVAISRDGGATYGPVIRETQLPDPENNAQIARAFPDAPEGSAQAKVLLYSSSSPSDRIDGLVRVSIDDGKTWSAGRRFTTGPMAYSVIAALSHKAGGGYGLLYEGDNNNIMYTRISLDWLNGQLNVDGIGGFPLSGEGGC
Briefly: Sialidase substrate specificity of Leg glycosides (HPLC/capillary electrophoresis), BiNanH2. The format is biochemical, Bifidobacterium infantis. Particulars: 37° C., 16 hs, pH 5.0.

The next assay has as its target T4, SpNanA (Streptococcus pneumoniae, UniProt P62575).
T4 construct: made in house
Briefly: Sialidase substrate specificity of Leg glycosides (HPLC/capillary electrophoresis), SpNanA. Type of assay: biochemical. Conditions: 37° C., 16 hs, pH 6.0.

The target of another assay is T5, SpNanB (Streptococcus pneumoniae serotype 4, UniProt Q54727, E68D/K536E/K577E/N393D/S59P).
T5 construct: made in house
Briefly: Sialidase substrate specificity of Leg glycosides (HPLC/capillary electrophoresis), SpNanB. Type of assay: biochemical. Particulars: 37° C., 16 hs, pH 6.0.

For the next assay, the target named is SpNanC (Streptococcus pneumoniae, UniProt A0A0H2UQE4). Briefly: Sialidase substrate specificity of Leg glycosides (HPLC/capillary electrophoresis), SpNanC. Type of assay: biochemical. Conditions: 37° C., 16 hs, pH 6.5.
Assay [5] deals with T6, PmST1 (α2-3-sialidase activity) (Pasteurella multocida, UniProt Q15KI8).
T6 construct: made in house
Briefly: Kinetic studies for PmST1 α2-3-sialidase activity (HPLC). The format is biochemical. Particulars: 0.4 mM CMP. The protocol:
Kinetic studies for PmST1 were performed in duplicates at 37° C. for 10 min. […] The reactions were stopped by adding 20 μL of pre-chilled ethanol. The mixtures were then centrifuged and the supernatants were analyzed by the HPLC system described above for sialidase substrate specificity studies assays. Apparent kinetic parameters were obtained by varying substrate concentrations from 0.1-40 mM (0.1, 0.2, 0.4, 1, 2, 4, 10, 20, and 40 mM) and fitting the data (the average values of duplicate assay results) into the Michaelis-Menten equation using Grafit 5.0.

T1 sequence (Q9Y3R4 whole entry): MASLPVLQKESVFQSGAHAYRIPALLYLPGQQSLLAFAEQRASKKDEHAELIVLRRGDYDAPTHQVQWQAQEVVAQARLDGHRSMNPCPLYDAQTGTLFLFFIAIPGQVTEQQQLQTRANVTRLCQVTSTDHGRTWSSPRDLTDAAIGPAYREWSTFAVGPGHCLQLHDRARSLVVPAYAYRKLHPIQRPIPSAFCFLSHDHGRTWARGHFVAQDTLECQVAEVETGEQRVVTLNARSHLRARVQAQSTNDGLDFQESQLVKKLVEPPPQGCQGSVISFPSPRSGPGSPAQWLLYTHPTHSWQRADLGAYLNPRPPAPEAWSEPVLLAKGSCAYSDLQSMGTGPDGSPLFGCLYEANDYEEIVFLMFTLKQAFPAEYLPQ

Regarding `CC(=O)NC[C@@H](O)[C@@H](O)[C@@H]1OC(O)(C(=O)O)C[C@H](O)[C@H]1NC(C)=O` (stereo partly drawn) [Neu5Ac9NAc, 5,9-Diacetamido-3,5,9-Trideoxy-D-glycero-D-galacto-2-nonulopyranosylonic Acid], the “cell surface incorporation detected with PToV probe” value in the assay on BJA-B K20 cells [1] is on record as “detected on the cell surface”. In the assay on human CD22-Fc/Siglec-2, the “expression of CD22 ligand on fed cells” value is “minimal”. The “binding to influenza C virus and fate under hemagglutinin-esterase” value in the assay on influenza C virus is given as “mimic Neu5,9Ac2 in binding to influenza C virus without being destroyed by esterase activity”. In addition, the “incorporation on the cell membrane (DMB-HPLC)” value in the assay with BJA-B K20 cells [2] was “showed incorporation”.
Take `CC(=O)N[C@@H]1C(O)C[C@](OC2C(O)[C@H](Oc3ccc([N+](=O)[O-])cc3)OC(CO)[C@@H]2O)(C(=O)O)OC1[C@H](NC(C)=O)[C@@H](C)O` (stereo partly drawn) [3-19, Leg5,7Ac2α2-3GalβpNP]: the “activity of hNEU2 for the compound” value in assay [3] is listed as “did not show activity”. For the same compound, in the assay with A. ureafaciens sialidase, the “activity of A. ureafaciens sialidase for the compound” value is reported as “did not show activity”. In addition, the “activity of V. cholerae sialidase for the compound” value at V. cholerae sialidase is “did not show activity”. For the same compound, the “activity of C. perfringens sialidase (CpNanH) for the compound” value in [4] was “did not show activity”. For the same compound, the “activity of BiNanH2 for the compound” value at BiNanH2 is reported as “did not show activity”. In addition, at SpNanA, the “activity of SpNanA for the compound” value is listed as “did not show activity”. At SpNanB, the “activity of SpNanB for the compound” value is “did not show activity”. Further, the “activity of SpNanC for the compound” value on SpNanC is “did not show activity”. Besides, in assay [5], the “α2-3-sialidase activity of PmST1, fold less efficient than for Neu5Acα2-3GalβpNP” value is on record as “about 30 fold”.
